# System: L. donovani intracellular amastigotes in B10R cells
# Assay: UCSD L. donovani infection assay (Assay Conditions D)
# Type: cell-based
# Settings: B10R cells
# Protocol: (§1) Assay Conditions D: B10R cells (CVCL_0155) were seeded at 300 cells/well, and L. donovani WT promastigotes in stationary phase (7th day after passage) were added at 6,000 parasites/well (ratio of 20 parasites/cell). Both cells and parasites were seeded in DMEM High-Glucose medium (Gibco, cat. no. 11995065) containing 5% Fetal Bovine Serum (Sigma-Aldrich, cat. no. F2442) and 1% Penicillin-Streptomycin (Gibco, cat. no. 15140122). Cells and parasites were incubated in the presence of the compounds for 72 h at 37° C. and 5% C02. Plates were then fixed with 4% formaldehyde solution for at least 1 h, then washed with 1×PBS and stained with 5 μg/mL DAPI. Plates were read using an ImageXpress microscope (Molecular Devices) and analyzed by MetaXpress software (Molecular Devices) using a custom module optimized for this assay. […] Compounds were tested in a 10-point 2-fold serial dilution in 3 technical replicates, and 2 biological replicates. After 72 h, plates were fixed and stained with DAPI as described above. Images were acquired on an ImageXpress microscope, and analyzed using the MetaXpress custom module.
# as §1, with “Compounds were obtained as 0.2 μmoles of dried film for primary single point screening. Each compound was diluted in DMSO to 10 μM final testing concentration. These compounds were tested in 2 biological replicates. The compounds were pre-spotted onto 384-well assay plates in single concentration.” for “Assay Conditions D:”, “CO2.” for “C02.”, “module. The DRCs were plotted, half-effective concentration (EC50) and half-cytotoxic concentration (CC50) were calculated using GraphPad Prism Software, version 6.05 (GraphPad Software, San Diego, CA).” for “module.”
row,SMILES,"L. donovani amastigotes EC75 (μM, B10R cells) [µM]"
1,Cc1ccc(C2c3c(CC(C)C)n[nH]c3C(=O)N2c2ccc3ncnn3c2)cc1 (stereo not drawn) [BUCMD00156],>10
2,CC(C)Cc1n[nH]c2c1C(C1CCCCC1)N(c1ccc3ncnn3c1)C2=O (stereo not drawn) [BUCMD00157],>10
3,CC(C)Cc1n[nH]c2c1C(c1cccs1)N(c1ccc3ncnn3c1)C2=O (stereo not drawn) [BUCMD00158],>10
4,COc1cccc(C2c3c(CC(C)C)n[nH]c3C(=O)N2c2ccc3ncnn3c2)c1 (stereo not drawn) [BUCMD00159],>10
5,CC(C)Cc1n[nH]c2c1C(c1ccc(F)cc1Br)N(c1ccc3ncnn3c1)C2=O (stereo not drawn) [BUCMD00160],>10
6,CC(C)Cc1n[nH]c2c1C(c1cc(C(F)(F)F)ccc1Br)N(c1ccc3ncnn3c1)C2=O (stereo not drawn) [BUCMD00161],>10
7,COc1cc(N2C(=O)c3[nH]nc(CC(C)C)c3C2c2ccc(F)cc2)ccn1 (stereo not drawn) [BUCMD00163],>10
8,COc1cc(N2C(=O)c3[nH]nc(CC(C)C)c3C2c2ccc(F)cc2)ccc1Br (stereo not drawn) [BUCMD00164],>10
9,COc1cc(OC)cc(N2C(=O)c3[nH]nc(CC(C)C)c3C2c2ccc(F)cc2)c1 (stereo not drawn) [BUCMD00165],>10
10,Cc1cccnc1N1C(=O)c2[nH]nc(CC(C)C)c2C1c1ccc(F)cc1 (stereo not drawn) [BUCMD00166],>10
11,Cc1cc(Br)cnc1N1C(=O)c2[nH]nc(CC(C)C)c2C1c1ccc(F)cc1 (stereo not drawn) [BUCMD00167],>10
12,Cc1cc(Cl)cnc1N1C(=O)c2[nH]nc(CC(C)C)c2C1c1ccc(F)cc1 (stereo not drawn) [BUCMD00168],>10
13,Cc1cc(N2C(=O)c3[nH]nc(CC(C)C)c3C2c2ccc(F)cc2)n(C)n1 (stereo not drawn) [BUCMD00169],>10
14,CC(C)Cc1n[nH]c2c1C(c1ccc(F)cc1)N(c1cc(C3CC3)[nH]n1)C2=O (stereo not drawn) [BUCMD00170],>10
15,CC(C)Cc1n[nH]c2c1C(c1ccc(F)cc1)N(c1cc(C(C)C)nn1C)C2=O (stereo not drawn) [BUCMD00171],>10
16,CC(C)Cc1n[nH]c2c1C(c1ccc(F)cc1)N(c1cncc(Br)c1)C2=O (stereo not drawn) [BUCMD00172],>10
17,Cc1ccnc(N2C(=O)c3[nH]nc(CC(C)C)c3C2c2ccc(F)cc2)c1 (stereo not drawn) [BUCMD00173],>10
18,Cc1ccc(N2C(=O)c3[nH]nc(CC(C)C)c3C2c2ccc(F)cc2)nc1 (stereo not drawn) [BUCMD00174],>10
19,Cc1cccc(N2C(=O)c3[nH]nc(CC(C)C)c3C2c2ccc(F)cc2)n1 (stereo not drawn) [BUCMD00175],>10
20,COc1ccc(N2C(=O)c3[nH]nc(CC(C)C)c3C2c2ccc(Br)cc2OC)cn1 (stereo not drawn) [BUCMD00176],>10
21,COc1ccc(OC)c(N2C(=O)c3[nH]nc(CC(C)C)c3C2c2ccc(OC)nc2)c1 (stereo not drawn) [BUCMD00177],>10
22,CCc1ccc(C2c3c(CC(C)C)n[nH]c3C(=O)N2c2ccc(F)c(OC)c2)cn1 (stereo not drawn) [BUCMD00178],>10
23,COc1cc(N2C(=O)c3[nH]nc(CC(C)C)c3C2c2c(C)nn(C)c2Cl)ccc1Br (stereo not drawn) [BUCMD00179],>10
24,COc1cc(N2C(=O)c3[nH]nc(CC(C)C)c3C2c2c(C)nn(C)c2Cl)ccc1F (stereo not drawn) [BUCMD00180],>10
25,COc1cc(N2C(=O)c3[nH]nc(CC(C)C)c3C2c2cncc(Br)c2)ccn1 (stereo not drawn) [BUCMD00181],>10
26,COc1ccc(OC)c(N2C(=O)c3[nH]nc(CC(C)C)c3C2c2cncc(Br)c2)c1 (stereo not drawn) [BUCMD00182],>10
27,COc1cc(N2C(=O)c3[nH]nc(CC(C)C)c3C2c2cncc(Br)c2)ccc1F (stereo not drawn) [BUCMD00183],>10

row,SMILES,"L. donovani amastigotes EC75 (μM, B10R cells) [µM]"
1,COc1cc(OC)cc(N2C(=O)c3[nH]nc(CC(C)C)c3C2c2cncc(Br)c2)c1 (stereo not drawn) [BUCMD00184],>10
2,COc1cccc(N2C(=O)c3[nH]nc(CC(C)C)c3C2c2cncc(Br)c2)c1 (stereo not drawn) [BUCMD00185],>10
3,COc1cc(N2C(=O)c3[nH]nc(CC(C)C)c3C2c2ccc(F)cc2C)ccn1 (stereo not drawn) [BUCMD00186],>10
4,COc1cc(N2C(=O)c3[nH]nc(CC(C)C)c3C2c2cc(Br)ccc2F)ccn1 (stereo not drawn) [BUCMD00187],>10
5,COc1cc(N2C(=O)c3[nH]nc(CC(C)C)c3C2c2ccc(F)cc2F)ccn1 (stereo not drawn) [BUCMD00188],>10
6,COc1ncccc1C1c2c(CC(C)C)n[nH]c2C(=O)N1c1ncccc1C (stereo not drawn) [BUCMD00189],>10
7,COc1ncccc1C1c2c(CC(C)C)n[nH]c2C(=O)N1c1ncc(Br)cc1C (stereo not drawn) [BUCMD00190],>10
8,COc1ncccc1C1c2c(CC(C)C)n[nH]c2C(=O)N1c1ncc(Cl)cc1C (stereo not drawn) [BUCMD00191],>10
9,Cc1cc(N2C(=O)c3[nH]nc(CC(C)C)c3C2c2ccc(Br)cc2)n(C)n1 (stereo not drawn) [BUCMD00192],>10
10,Cc1cc(N2C(=O)c3[nH]nc(CC(C)C)c3C2c2ccc(Cl)cc2)n(C)n1 (stereo not drawn) [BUCMD00193],>10
11,COc1cc(C2c3c(CC(C)C)n[nH]c3C(=O)N2c2cc(C)nn2C)cc(OC)c1Br (stereo not drawn) [BUCMD00194],>10
12,COc1cc(C2c3c(CC(C)C)n[nH]c3C(=O)N2c2cc(C3CC3)[nH]n2)cc(OC)c1Br (stereo not drawn) [BUCMD00195],>10
13,COc1ccc(OC)c(C2c3c(CC(C)C)n[nH]c3C(=O)N2c2cncc(Br)c2)c1 (stereo not drawn) [BUCMD00196],>10
14,COc1ccc(OC)c(C2c3c(CC(C)C)n[nH]c3C(=O)N2c2cc(C)ccn2)c1 (stereo not drawn) [BUCMD00197],>10
15,COc1ccc(OC)c(C2c3c(CC(C)C)n[nH]c3C(=O)N2c2ccc(C)cn2)c1 (stereo not drawn) [BUCMD00198],>10
16,COc1ccc(OC)c(C2c3c(CC(C)C)n[nH]c3C(=O)N2c2cccc(C)n2)c1 (stereo not drawn) [BUCMD00199],>10
17,Cc1ccc(N2C(=O)c3[nH]nc(CC(C)C)c3C2c2ccc(F)cc2Br)cn1 (stereo not drawn) [BUCMD00629],1.0
18,Cc1ccc(N2C(=O)c3[nH]nc(CC(C)C)c3C2c2ccc(F)cc2F)cn1 (stereo not drawn) [BUCMD00630],7.3
19,Cc1cc(N2C(=O)c3[nH]nc(CC(C)C)c3C2c2ccc(F)cc2Br)ccn1 (stereo not drawn) [BUCMD00643],1.2
20,Cc1cc(F)ccc1C1c2c(CC(C)C)n[nH]c2C(=O)N1c1ccn(C)n1 (stereo not drawn) [BUCMD00652],>10
21,CC(C)Cc1n[nH]c2c1C(c1ccc(Br)cc1F)N(c1ccn(C)n1)C2=O (stereo not drawn) [BUCMD00653],>10
22,CC(C)Cc1n[nH]c2c1C(c1ccc(F)cc1Cl)N(c1ccn(C)n1)C2=O (stereo not drawn) [BUCMD00654],>10
23,CC(C)Cc1n[nH]c2c1C(c1ccc(Cl)cc1F)N(c1ccn(C)n1)C2=O (stereo not drawn) [BUCMD00655],>10
24,CC(C)Cc1n[nH]c2c1C(c1ccccc1Cl)N(c1ccn(C)n1)C2=O (stereo not drawn) [BUCMD00656],>10
25,Cc1ccccc1C1c2c(CC(C)C)n[nH]c2C(=O)N1c1ccn(C)n1 (stereo not drawn) [BUCMD00657],>10
26,CC(C)Cc1n[nH]c2c1C(c1ccc(F)cc1Br)N(c1ccn(C)n1)C2=O (stereo not drawn) [BUCMD00658],>10
27,CC(C)Cc1n[nH]c2c1C(c1ccc(F)cc1F)N(c1ccn(C)n1)C2=O (stereo not drawn) [BUCMD00659],>10

# Source: patent US20230381142A1, “ANTILEISHMANIAL COMPOUNDS, COMPOSITIONS AND USE THEREOF” (TRUSTEES OF BOSTON UNIVERSITY, priority 2022, published 2023)
